# Experimental data reported in ChEMBL document CHEMBL4002616, “Functionalized triazines as potent HCV entry inhibitors” (Bioorg Med Chem Lett, 2017).
# What was measured:
# [1] = Metabolic stability in human liver microsomes assessed as parent compound remaining after 10 mins; format: ADME, microsome; conditions: read-out: Stability
# [2] = (§1) Metabolic stability in rat liver microsomes assessed as parent compound remaining after 10 mins; format: ADME, microsome; conditions: liver microsomes, read-out: Stability
# [3] = Volume of distribution at steady state in rat at 2 mg/kg, iv or 5 mg/kg, po; format: ADME, organism-based; conditions: in vivo, read-out: Vdss
# [4] = Clearance in rat at 2 mg/kg, iv; format: ADME, organism-based; conditions: in vivo
# Rattus norvegicus = assay: AUC in rat at 5 mg/kg, po; format: ADME, organism-based; conditions: in vivo, BLD = below limit of detection
# [5] = Plasma half life in rat at 2 mg/kg, iv; format: ADME, organism-based
# Liver = assay: as §1; format: ADME, microsome; conditions: microsomes, 10 min
Compound,remaining at 10 min [1] [%],remaining at 10 min [2] [%],also measured
CC(C)OC(=O)NCCS(=O)(=O)NC(=O)c1ccc(Nc2nc(NC3(c4ccc(Cl)cc4)CC3)nc(OCC(F)(F)F)n2)cc1,100,73,
CN(C)CCS(=O)(=O)NC(=O)c1ccc(Nc2nc(NC3(c4ccc(Cl)cc4)CC3)nc(OCC(F)(F)F)n2)cc1,89,100,
COC(=O)NCCS(=O)(=O)NC(=O)c1ccc(Nc2nc(NC3(c4ccc(Cl)cc4)CC3)nc(OCC(F)(F)F)n2)cc1,90,100,
O=C(NS(=O)(=O)CCNCc1ccccc1)c1ccc(Nc2nc(NC3(c4ccc(Cl)cc4)CC3)nc(OCC(F)(F)F)n2)cc1,99,100,
O=C(O)c1ccc(Nc2nc(NC3(c4ccc(Cl)cc4)CC3)nc(OCC(F)(F)F)n2)cc1,89,99,
Cc1ccccc1S(=O)(=O)NC(=O)c1ccc(Nc2nc(NC3(c4ccc(Cl)cc4)CC3)nc(OCC(F)(F)F)n2)cc1,100,100,
CC(C)(C)OC(=O)NCCS(=O)(=O)NC(=O)c1ccc(Nc2nc(NC3(c4ccc(Cl)cc4)CC3)nc(OCC(F)(F)F)n2)cc1,92,93,
O=C(NS(=O)(=O)CCN1CCOCC1)c1ccc(Nc2nc(NC3(c4ccc(Cl)cc4)CC3)nc(OCC(F)(F)F)n2)cc1,78,97,
CC(C)(C)CNCCS(=O)(=O)NC(=O)c1ccc(Nc2nc(NC3(c4ccc(Cl)cc4)CC3)nc(OCC(F)(F)F)n2)cc1,89,90,Vd [3]: 0.6 L/kg; clearance [4]: 22.5 mL/min/kg; AUC (Rattus norvegicus): Bld; half-life [5]: 2.6 h
CC(C)C(=O)NCCS(=O)(=O)NC(=O)c1ccc(Nc2nc(NC3(c4ccc(Cl)cc4)CC3)nc(OCC(F)(F)F)n2)cc1,86,84,
CC(C)S(=O)(=O)NC(=O)c1ccc(Nc2nc(NC3(c4ccc(Cl)cc4)CC3)nc(OCC(F)(F)F)n2)cc1,100,96,
O=C(NS(=O)(=O)CCN1CCCC1)c1ccc(Nc2nc(NC3(c4ccc(Cl)cc4)CC3)nc(OCC(F)(F)F)n2)cc1,96,98,
CC(=O)NCCS(=O)(=O)NC(=O)c1ccc(Nc2nc(NC3(c4ccc(Cl)cc4)CC3)nc(OCC(F)(F)F)n2)cc1,95,100,
CCCCCNc1nc(Nc2ccc([N+](=O)[O-])cc2)nc(OCC(F)(F)F)n1,74,35,
CC(C)NC(=O)NCCS(=O)(=O)NC(=O)c1ccc(Nc2nc(NC3(c4ccc(Cl)cc4)CC3)nc(OCC(F)(F)F)n2)cc1,100,97,
CCN(CC)CCS(=O)(=O)NC(=O)c1ccc(Nc2nc(NC3(c4ccc(Cl)cc4)CC3)nc(OCC(F)(F)F)n2)cc1,99,98,
O=C(NS(=O)(=O)CCNC(=O)C1CC1)c1ccc(Nc2nc(NC3(c4ccc(Cl)cc4)CC3)nc(OCC(F)(F)F)n2)cc1,90,,Stability (Liver): Not Active
O=C(NS(=O)(=O)c1ccc(F)cc1)c1ccc(Nc2nc(NC3(c4ccc(Cl)cc4)CC3)nc(OCC(F)(F)F)n2)cc1,100,99,
CS(=O)(=O)NC(=O)c1ccc(Nc2nc(NC3(c4ccc(Cl)cc4)CC3)nc(OCC(F)(F)F)n2)cc1,100,85,
O=C(NS(=O)(=O)C1CC1)c1ccc(Nc2nc(NC3(c4ccc(Cl)cc4)CC3)nc(OCC(F)(F)F)n2)cc1,100,85,
CCS(=O)(=O)NC(=O)c1ccc(Nc2nc(NC3(c4ccc(Cl)cc4)CC3)nc(OCC(F)(F)F)n2)cc1,100,85,
CN(C)S(=O)(=O)NC(=O)c1ccc(Nc2nc(NC3(c4ccc(Cl)cc4)CC3)nc(OCC(F)(F)F)n2)cc1,86,76,
O=C(NS(=O)(=O)c1ccccc1)c1ccc(Nc2nc(NC3(c4ccc(Cl)cc4)CC3)nc(OCC(F)(F)F)n2)cc1,100,100,
CNC(=O)NCCS(=O)(=O)NC(=O)c1ccc(Nc2nc(NC3(c4ccc(Cl)cc4)CC3)nc(OCC(F)(F)F)n2)cc1,97,100,
CC(C)NCCS(=O)(=O)NC(=O)c1ccc(Nc2nc(NC3(c4ccc(Cl)cc4)CC3)nc(OCC(F)(F)F)n2)cc1,89,100,
NCCS(=O)(=O)NC(=O)c1ccc(Nc2nc(NC3(c4ccc(Cl)cc4)CC3)nc(OCC(F)(F)F)n2)cc1,100,100,
CC(C)(C)NC(=O)NCCS(=O)(=O)NC(=O)c1ccc(Nc2nc(NC3(c4ccc(Cl)cc4)CC3)nc(OCC(F)(F)F)n2)cc1,96,93,
